Reference: patent US20110104055A1, “SUBSTITUTED N-ARYL BENZAMIDES AND RELATED COMPOUNDS FOR TREATMENT OF AMYLOID DISEASES AND SYNUCLEINOPATHIES” (priority 2002, published 2011)

Legend:
Assay type in all cases: biochemical
Aβ 1-42 fibrils = biological target: T1, Aβ 1-42 fibrils (Homo sapiens, UniProt P05067); assay: Thioflavin T fluorometry, disruption of pre-formed Aβ 1-42 fibrils (Example 6); conditions: 3 days; for % inhibition of Aβ (Thioflavin T fluorometry): 25 μM pre-fibrillized Aβ 1-42, 37° C.
T1 construct: purchased Bachem Inc
Method: The biological activity of the compounds provided herein as disruptors/inhibitors of Alzheimer's disease β-amyloid protein (Aβ) fibrils, type 2 diabetes IAPP fibrils and Parkinson's disease NAC fibrils was assessed by determining the efficacy of the compounds to cause a disassembly/disruption of pre-formed amyloid fibrils of Alzheimer's disease (i.e. consisting of Aβ 1-42 fibrils), IAPP fibrils and Parkinson's disease NAC fibrils. In one study, Thioflavin T fluorometry was used to determine the effects of the compounds, and of EDTA (as a negative control). In this assay Thioflavin T binds specifically to fibrillar amyloid, and this binding produces a fluorescence enhancement at 485 nm that is directly proportional to the amount of fibrils present. The higher the fluorescence, the greater the amount of fibrils present (Naki et al, Lab. Invest. 65:104-110, 1991; Levine III, Protein Sci. 2:404-410, 1993; Amyloid: Int. J. Exp. Clin. Invest. 2:1-6, 1995). The disruption of Aβ 1-42, even in its monomeric form, was confirmed by a study involving the use of SDS-PAGE and Western blotting methods.
In one study, Thioflavin T fluorometry was used to determine the effects of the compounds, and of EDTA (as a negative control). In this assay Thioflavin T binds specifically to fibrillar amyloid, and this binding produces a fluorescence enhancement at 485 nm that is directly proportional to the amount of amyloid fibrils formed. The higher the fluorescence, the greater the amount of amyloid fibrils formed (Naki et al., Lab. Invest. 65:104-110, 1991; Levine III, Protein Sci. 2:404-410, 1993; Amyloid: Int. J. Exp. Clin. Invest. 2:1-6, 1995).
(§1) Following 3 days of co-incubation, 50 μl of each incubation mixture was transferred into a 96-well microtiter plate containing 150 μl of distilled water and 50 μl of a Thioflavin T solution (i.e. 500 mM Thioflavin T in 250 mM phosphate buffer, pH 6.8). The fluorescence was read at 485 nm (444 nm excitation wavelength) using an ELISA plate fluorometer after subtraction with buffer alone or compound alone, as blank).

Aβ 1-42 = biological target: T2, Aβ 1-42 (Homo sapiens, UniProt P05067); assay: SDS-PAGE/Western blot of Aβ 1-42 after incubation with compounds; conditions: 25 μM pre-fibrillized Aβ 1-42, 37° C., 3 days, filtrate of 0.2 μm filter, 6E10 antibody
T2 construct: 25 μM of pre-fibrillized Aβ 1-42 (Bachem Inc) was incubated at 37° C; purchased Bachem Inc
Method: In this latter study, triplicate samples of pre-fibiillized Aβ 1-42 (25 μM) was incubated at 37° C. for 3 days, alone or in the presence of the compounds or EDTA. Five micrograms of each sample was then filtered through a 0.2 μm filter. Protein recovered from the filtrate was then loaded, and ran on a 10-20% Tris-Tricine SDS-PAGE, blotted to nitrocellulose and detected using an Aβ-antibody (clone 6E10; Senetek).

IAPP fibrils = biological target: T3, IAPP fibrils (Homo sapiens, UniProt P10997); assay: Congo red binding assay, IAPP fibrils; conditions: 3-day incubation
T3 construct: purchased Bachem Inc
T3 sequence (P10997 34-70 limits assumed): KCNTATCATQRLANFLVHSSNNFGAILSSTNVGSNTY
Method: In the Congo red binding assay the ability of a given test compound to alter amyloid (Aβ 1-42 fibrils, IAPP fibrils or NAC fibrils) binding to Congo red was quantified. In this assay, Aβ 1-42 fibrils, IAPP fibril or NAC fibrils and test compounds were incubated for 3 days and then vacuum filtered through a 0.2 μm filter. The amount of Aβ 1-42 fibrils, IAPP fibrils or NAC fibrils retained in the filter was then quantitated following staining of the filter with Congo red. After appropriate washing of the filter, any lowering of the Congo red color on the filter in the presence of the test compound (compared to the Congo red staining of the amyloid protein in the absence of the test compound) was indicative of the test compound's ability to diminish/alter the amount of aggregated and congophilic Aβ 1-42 fibrils, IAPP fibrils or NAC fibrils.
In the Congo red binding assay the ability of a test compound to alter amyloid (in this case, IAPP) binding to Congo red is quantified. In this assay, IAPP and test compounds were incubated for 3 days and then vacuum filtered through a 0.2 μm filter. The amount of IAPP retained in the filter was then quantified following staining of the filter with Congo red. After appropriate washing of the filter, any lowering of the Congo red color on the filter in the presence of the test compound (compared to the Congo red staining of the amyloid protein in the absence of the test compound) was indicative of the test compound's ability to diminish/alter the amount of aggregated and congophilic IAPP.
In one study, the ability of IAPP fibrils to bind Congo red in the absence or presence of increasing amounts of the compounds or EDTA (at IAPP:test compound weight ratios of 1:0.001, 1:0.01, 1:0.1 and 1:1) was determined.

α-synuclein fibrils = biological target: T4, α-synuclein fibrils (Homo sapiens, UniProt P37840); assay: Thioflavin T fluorometry, disruption of pre-formed α-synuclein fibrils (Example 12); conditions: 3 days; for % Inhibition α-synuclein (result ± S.D.), Thioflavin T fluorometry: 30 μg pre-fibrillized α-synuclein, 37° C.
T4 construct: purchased rPeptide
Method: In this assay, Thioflavin T binds specifically to α-synuclein fibrils, and this binding produces a fluorescence enhancement at 485 nm that is directly proportional to the amount of α-synuclein fibrils present. The higher the fluorescence, the greater the amount of α-synuclein fibrils present (Naki et al, Lab. Invest. 65:104-110, 1991; Levine III, Protein Sci. 2:404-410, 1993; Amyloid: Int. J. Exp. Clin. Invest. 2:1-6, 1995).
as §1, with “In this study, 30 μg of pre-fibrillized α-synuclein (rPeptide) was incubated at 37° C. for” for “Following”, “days either alone or in the presence of compounds DC-0051-F1, F2, F3, F4, F5, F6 or EDTA (at α-synuclein:test compound weight ratios of 1:1, 1:0.1, 1:0.01 or 1:0.001). Following 3-days” for “days”, “blank.” for “blank).”

[1] = Thioflavin T fluorometry, all concentrations tested

T1 sequence (P05067 672-713): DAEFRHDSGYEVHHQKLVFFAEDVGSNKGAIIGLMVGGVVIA
T2 sequence (P05067 672-713): as above

Structure (SMILES): O=C(O)CN(CCN(CC(=O)O)CC(=O)O)CC(=O)O [EDTA]
- % inhibition of Aβ (Thioflavin T fluorometry) (Aβ 1-42 fibrils; Aβ:test compound wt/wt ratio 1:0.01): 0.2 ± 3.03%
- % inhibition of Aβ (Thioflavin T fluorometry) (Aβ 1-42 fibrils; Aβ:test compound wt/wt ratio 1:1): 0.0 ± 3.59%
- disruption/disassembly of preformed Aβ 1-42 fibrils, in words (Aβ 1-42 fibrils; [1]): no significant inhibition/disruption
- detection of Aβ 1-42 monomers (~4 kilodalton band) after incubation (Aβ 1-42): detected as a ˜4 kilodalton band
- inhibition of IAPP fibril binding to Congo red, in words (IAPP fibrils): no significant inhibition
- % inhibition of IAPP (Congo red binding) (IAPP fibrils; IAPP:test compound wt/wt ratio 1:0.001): 0.0 ± 1.82%
- % inhibition of IAPP (Congo red binding) (IAPP fibrils; IAPP:test compound wt/wt ratio 1:0.01): 0.0 +/− 1.65%
- % inhibition of IAPP (Congo red binding) (IAPP fibrils; IAPP:test compound wt/wt ratio 1:0.1): 0.0 +/− 2.40%
- % inhibition of IAPP (Congo red binding) (IAPP fibrils; IAPP:test compound wt/wt ratio 1:1): 13.9 +/− 4.71%
- disruption/disassembly of pre-formed α-synuclein fibrils, in words (α-synuclein fibrils; [1]): no significant inhibition
- % Inhibition α-synuclein (result ± S.D.), Thioflavin T fluorometry (α-synuclein fibrils; α-synuclein:test compound wt/wt ratio 1:0.001): 0.0 ± 4.11%
- % Inhibition α-synuclein (result ± S.D.), Thioflavin T fluorometry (α-synuclein fibrils; α-synuclein:test compound wt/wt ratio 1:0.01): 0.0 ± 17.06%
- % Inhibition α-synuclein (result ± S.D.), Thioflavin T fluorometry (α-synuclein fibrils; α-synuclein:test compound wt/wt ratio 1:0.1): 0.0 ± 6.97%
- % Inhibition α-synuclein (result ± S.D.), Thioflavin T fluorometry (α-synuclein fibrils; α-synuclein:test compound wt/wt ratio 1:1): 0.0 ± 2.03%
